From article PMC10763615, “Identification and engineering of potent cyclic peptides with selective or promiscuous binding through biochemical profiling and bioinformatic data analysis” (RSC Chemical Biology, 2023)
Read-outs that look alike come from different tables or passages of the source.

Tests used:
[1] = target: T1, FGF-R1C ECD (Homo sapiens, UniProt P11362); experiment: biochemical
T1 sequence (P11362 22-376 limits assumed): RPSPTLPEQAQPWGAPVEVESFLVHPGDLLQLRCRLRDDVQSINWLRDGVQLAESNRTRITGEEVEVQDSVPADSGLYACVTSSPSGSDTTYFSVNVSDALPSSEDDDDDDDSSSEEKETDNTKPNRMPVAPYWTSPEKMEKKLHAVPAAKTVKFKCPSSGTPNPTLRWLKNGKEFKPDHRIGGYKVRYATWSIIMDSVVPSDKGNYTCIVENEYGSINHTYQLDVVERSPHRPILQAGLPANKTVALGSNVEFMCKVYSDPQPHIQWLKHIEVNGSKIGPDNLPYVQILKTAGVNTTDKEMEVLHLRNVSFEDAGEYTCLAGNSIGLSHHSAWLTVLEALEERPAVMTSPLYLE
Outline: (§1)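 Streptavidin biosensors carrying biotinylated FGF receptor ECD were immersed in peptide (~1 μM for crude single-point runs, a concentration series for purified peptides) and then in peptide-free buffer. KD was obtained by fitting the BLI association and dissociation curves.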

[2] = target: T2, FGF-R3C ECD (Homo sapiens, UniProt P22607); experiment: biochemical
T2 sequence (P22607 23-375 limits assumed): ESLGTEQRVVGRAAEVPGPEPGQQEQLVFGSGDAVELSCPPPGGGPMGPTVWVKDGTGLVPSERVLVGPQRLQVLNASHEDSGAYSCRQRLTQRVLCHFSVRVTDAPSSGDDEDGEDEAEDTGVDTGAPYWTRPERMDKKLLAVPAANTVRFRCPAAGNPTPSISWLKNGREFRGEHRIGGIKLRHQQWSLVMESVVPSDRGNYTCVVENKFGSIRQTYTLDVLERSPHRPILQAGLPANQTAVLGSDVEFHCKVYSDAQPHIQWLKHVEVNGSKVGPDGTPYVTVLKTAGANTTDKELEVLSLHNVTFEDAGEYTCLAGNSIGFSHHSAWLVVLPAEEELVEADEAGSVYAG
Outline: as §1

[3] = target: T3, FGF-R4 ECD (Homo sapiens, UniProt P22455); experiment: multi-concentration BLI of purified peptides; format: binding; details: purified NNK library peptides
T3 construct: DNA constructs for the extracellular domain (ECD) of human FGF-; HPC4 (C); made in house; host or cells: HEK 293-6E
T3 sequence (P22455 22-369 limits assumed): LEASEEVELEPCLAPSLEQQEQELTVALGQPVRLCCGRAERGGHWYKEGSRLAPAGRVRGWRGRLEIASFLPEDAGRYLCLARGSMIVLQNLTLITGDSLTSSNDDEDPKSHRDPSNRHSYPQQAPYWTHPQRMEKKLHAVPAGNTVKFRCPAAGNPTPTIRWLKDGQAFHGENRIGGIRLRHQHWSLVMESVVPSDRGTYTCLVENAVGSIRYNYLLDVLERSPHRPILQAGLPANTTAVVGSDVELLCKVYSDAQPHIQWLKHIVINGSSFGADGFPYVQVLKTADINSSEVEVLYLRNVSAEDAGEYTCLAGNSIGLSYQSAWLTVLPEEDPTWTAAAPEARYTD
Outline: as §1

[4] = target: T3, FGF-R4 ECD; experiment: single concentration BLI of crude peptides; format: binding; details: crude NNK peptides, single concentration BLI (Table S3); read-out: KD (4)
Outline: as §1

[5] = target: T4, FGFR1c/KLB (Fc-fused human FGF-R1alpha(IIIc) with beta-klotho) (Homo sapiens, UniProt P11362); experiment: AlphaScreen FGF21 competitive binding assay
T4 sequence (P11362 22-376 limits assumed): T1 sequence (P11362 22-376 limits assumed)

[6] = target: T5, FGFR3c/BKL (Fc-fused human FGF-R3alpha(IIIc) with beta-klotho) (Homo sapiens, UniProt P22607); experiment: AlphaScreen FGF21 competitive binding assay
T5 sequence (P22607 23-375 limits assumed): T2 sequence (P22607 23-375 limits assumed)

[7] = target: T6, FGFR4/KLB (Fc-fused human FGF-R4 with beta-klotho) (Homo sapiens, UniProt P22455); experiment: AlphaScreen FGF21 competitive binding assay
T6 sequence (P22455 22-369 limits assumed): T3 sequence (P22455 22-369 limits assumed)
Method: Alphascreen binding assay
The competitive binding assay was carried out according to the methods detailed in Hansen. et al using
AlphaScreen.3 All reagents and samples were prepared in assay buffer: 40mM Hepes, 140mM NaCl, 1mM
CaCl2, 0,05% Tween20, pH=7.5, 0.1% BSA. In brief, recombinant human beta-klotho (R&D Systems) was
preincubated for 60 min with the ectodomain, either Fc-fused human FGF-R1alpha(IIIc), FGF-R3alpha(IIIc)
or FGF-R4 (R&D Systems), and the mixture was added to the test peptides in OptiPlate™ (PerkinElmer).
Biotinylated FGF21 and heparin were further added to each well. AlphaScreen bead mix (1:1 mix of Protein
A acceptor beads/ streptavidin-coated donor beads, PerkinElmer) were added to each well incubated
overnight at RT in the dark, and measured on a plate reader (Envision). Assays were carried out in triplicates
with concentrations ranging from 3, 10, 30, 100, 300 ,1000 and 3000 nM of peptide. No peptide control
(media only) was used as a negative control, and unlabeled FGF21 and FGF1 as positive control.
competing with biotinylated natural FGF21 ligand.

[8] = target: T1, FGF-R1C ECD; experiment: biochemical; format: binding; set-up: DNA constructs for the extracellular domain (ECD) of human FGF-; HPC4 (C); made in house; host or cells: HEK 293-6E
Outline: as §1

[9] = target: T2, FGF-R3C ECD; experiment: biochemical; format: binding; set-up: DNA constructs for the extracellular domain (ECD) of human FGF-; HPC4 (C); made in house; host or cells: HEK 293-6E
Outline: as §1

Compound	Kd ([1]; read-out: R1C KD, purified NNK library peptides, multi-concentration BLI) [µM]	Kd ([2]; read-out: R3C KD, purified NNK library peptides, multi-concentration BLI) [µM]	Kd [3] [µM]	Kd [4] [µM]	IC50 ([5]; read-out: R1C competitive IC50, purified peptides, Alphascreen vs biotinylated FGF21) [µM]	IC50 ([6]; read-out: R3C competitive IC50, purified peptides, Alphascreen vs biotinylated FGF21) [µM]	IC50 ([7]; read-out: R4 competitive IC50, purified peptides, Alphascreen vs biotinylated FGF21) [µM]	Kd ([8]; read-out: KD (1C)) [µM]	Kd ([9]; read-out: KD(3C)) [µM]	Kd [1] [µM]	Kd [2] [µM]	R3C KD (nM) ([2]; purified NNK library peptides, multi-concentration BLI)	IC50 [5] [µM]	IC50 [6] [µM]	IC50 [7] [µM]	Kd [8] [µM]	Kd [9] [µM]
CC[C@H](C)[C@@H]1NC(=O)[C@H](Cc2ccccc2)NC(=O)[C@@H]2CCCN2C(=O)[C@H](C(C)C)NC(=O)[C@H](Cc2ccccc2)NC(=O)[C@H](CO)NC(=O)[C@H](CC(=O)O)NC(=O)[C@H](Cc2ccccc2)NC(=O)[C@H](CC(C)C)NC(=O)[C@@H](NC(=O)[C@@H](N)CCSC)CSSC[C@@H](C(=O)NCC(=O)N[C@@H](CO)C(=O)NCC(=O)N[C@@H](CO)C(=O)N[C@@H](CC(=O)O)C(=O)N[C@@H](Cc2ccc(O)cc2)C(=O)N[C@@H](CCCCN)C(=O)N[C@@H](CC(=O)O)C(=O)N[C@@H](CC(=O)O)C(=O)N[C@@H](CC(=O)O)C(=O)N[C@@H](CC(=O)O)C(=O)N[C@@H](CCCCN)C(N)=O)NC(=O)[C@H](Cc2ccccc2)NC1=O [3C.3]	> 1	0.021	> 1	> 10	> 1	0.095	> 1	> 10	0.029								
CC[C@H](C)[C@@H]1NC(=O)[C@@H](NC(=O)[C@@H](N)CCSC)CSSC[C@@H](C(=O)NCC(=O)N[C@@H](CO)C(=O)NCC(=O)N[C@@H](CO)C(=O)N[C@@H](CC(=O)O)C(=O)N[C@@H](Cc2ccc(O)cc2)C(=O)N[C@@H](CCCCN)C(=O)N[C@@H](CC(=O)O)C(=O)N[C@@H](CC(=O)O)C(=O)N[C@@H](CC(=O)O)C(=O)N[C@@H](CC(=O)O)C(=O)N[C@@H](CCCCN)C(N)=O)NC(=O)[C@@H]2CCCN2C(=O)[C@H]([C@@H](C)CC)NC(=O)[C@H](Cc2ccccc2)NC(=O)[C@@H]2CCCN2C(=O)[C@H](CCSC)NC(=O)[C@H](Cc2c[nH]cn2)NC(=O)[C@H]([C@@H](C)CC)NC(=O)[C@H](CC(=O)O)NC(=O)[C@H](Cc2ccccc2)NC1=O [3C.2]			> 1	> 10						> 1	> 1	did not show any binding	> 1	> 1	> 1	> 10	> 10
CSCC[C@H](NC(C)=O)C(=O)N[C@H]1CSSC[C@@H](C(=O)NCC(=O)N[C@@H](CO)C(=O)NCC(=O)N[C@@H](CO)C(=O)N[C@@H](CC(=O)O)C(=O)N[C@@H](Cc2ccc(O)cc2)C(=O)N[C@@H](CCCCN)C(=O)N[C@@H](CC(=O)O)C(=O)N[C@@H](CC(=O)O)C(=O)N[C@@H](CC(=O)O)C(=O)N[C@@H](CC(=O)O)C(=O)N[C@@H](CCCCN)C(N)=O)NC(=O)[C@H](CO)NC(=O)[C@H](CCCNC(=N)N)NC(=O)[C@H](Cc2ccccc2)NC(=O)[C@H](C)NC(=O)[C@H](CC(C)C)NC(=O)[C@H](Cc2ccc(O)cc2)NC(=O)[C@H](Cc2ccc(O)cc2)NC(=O)[C@H](C)NC(=O)[C@H](CC(C)C)NC(=O)[C@H](Cc2c[nH]cn2)NC1=O [4.3]			0.086	0.058						> 1	> 1		> 1	> 1	0.508	> 10	> 10
CC[C@H](C)[C@@H]1NC(=O)[C@@H](NC(=O)[C@H](CCSC)NC(C)=O)CSSC[C@@H](C(=O)NCC(=O)N[C@@H](CO)C(=O)NCC(=O)N[C@@H](CO)C(=O)N[C@@H](CC(=O)O)C(=O)N[C@@H](Cc2ccc(O)cc2)C(=O)N[C@@H](CCCCN)C(=O)N[C@@H](CC(=O)O)C(=O)N[C@@H](CC(=O)O)C(=O)N[C@@H](CC(=O)O)C(=O)N[C@@H](CC(=O)O)C(=O)N[C@@H](CCCCN)C(N)=O)NC(=O)[C@H](Cc2ccccc2)NC(=O)[C@H]([C@@H](C)CC)NC(=O)[C@H](Cc2ccccc2)NC(=O)[C@@H]2CCCN2C(=O)[C@H](CC(C)C)NC(=O)[C@H](Cc2ccccc2)NC(=O)[C@H](CC(C)C)NC(=O)[C@H](CC(=O)O)NC(=O)[C@H](Cc2ccccc2)NC1=O [3C.1]			> 1	> 10						> 1	0.095		> 1	0.204	> 1	> 10	0.064
